Blank lines part the entries; values can stand above or below the compound they belong to.
Biological target: T1, recombinant guanylate cyclase reporter cell line (Rattus norvegicus, UniProt P19686+P20595)
T1 construct: expressed in transfected cells; host or cells: recombinant reporter cell line
T1 sequence (P19686 1-690): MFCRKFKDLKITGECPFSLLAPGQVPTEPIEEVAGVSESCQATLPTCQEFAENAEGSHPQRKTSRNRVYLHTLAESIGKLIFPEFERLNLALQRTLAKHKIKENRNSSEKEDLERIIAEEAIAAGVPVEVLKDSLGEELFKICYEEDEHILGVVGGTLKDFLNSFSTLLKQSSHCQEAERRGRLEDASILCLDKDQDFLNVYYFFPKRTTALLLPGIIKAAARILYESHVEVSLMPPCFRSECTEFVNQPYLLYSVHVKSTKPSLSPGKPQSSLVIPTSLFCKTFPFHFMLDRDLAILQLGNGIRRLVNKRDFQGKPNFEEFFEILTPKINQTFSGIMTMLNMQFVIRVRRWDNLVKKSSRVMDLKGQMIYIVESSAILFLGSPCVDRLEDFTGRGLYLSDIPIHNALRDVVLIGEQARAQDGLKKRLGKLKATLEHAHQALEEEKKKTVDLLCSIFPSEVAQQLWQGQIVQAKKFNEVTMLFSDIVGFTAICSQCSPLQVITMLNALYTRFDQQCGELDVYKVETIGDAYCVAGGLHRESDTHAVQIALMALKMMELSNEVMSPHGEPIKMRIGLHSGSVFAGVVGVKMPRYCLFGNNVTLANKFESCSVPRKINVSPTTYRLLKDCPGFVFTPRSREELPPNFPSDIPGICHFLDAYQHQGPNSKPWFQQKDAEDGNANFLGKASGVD
T1 sequence (P20595 1-619): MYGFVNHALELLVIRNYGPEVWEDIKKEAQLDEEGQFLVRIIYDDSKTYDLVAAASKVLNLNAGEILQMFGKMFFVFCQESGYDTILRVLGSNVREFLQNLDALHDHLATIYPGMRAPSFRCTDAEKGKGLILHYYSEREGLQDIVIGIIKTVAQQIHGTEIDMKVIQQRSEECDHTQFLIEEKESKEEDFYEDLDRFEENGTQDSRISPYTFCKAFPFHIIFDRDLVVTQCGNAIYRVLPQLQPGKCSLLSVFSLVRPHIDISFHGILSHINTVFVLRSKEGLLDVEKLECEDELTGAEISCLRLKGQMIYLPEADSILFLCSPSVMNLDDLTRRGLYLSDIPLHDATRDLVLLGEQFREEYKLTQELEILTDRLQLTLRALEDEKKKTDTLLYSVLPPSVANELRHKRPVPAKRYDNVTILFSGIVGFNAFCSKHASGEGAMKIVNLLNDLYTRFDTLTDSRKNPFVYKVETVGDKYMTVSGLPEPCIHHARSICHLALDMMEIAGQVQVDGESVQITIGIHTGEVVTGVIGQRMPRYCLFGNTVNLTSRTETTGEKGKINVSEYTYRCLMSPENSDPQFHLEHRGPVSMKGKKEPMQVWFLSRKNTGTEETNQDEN
Assay: Action on recombinant guanylate cyclase reporter cell line
Assay type: cell-based
Conditions: in some cases mean values from individual determinations
Outline: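 Whole-cell reporter assay with recombinant guanylate cyclase; endpoint = minimal effective concentration.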

Compound: Cc1nc2c(OCc3c(F)cccc3F)cccn2c1C(=O)NCC(C(C)C)N(C)C (single isomer, unassigned; ent-8) [Example 188, ent-8-[(2,6-Difluorobenzyl)oxy]-N-[2-(dimethylamino)-3-methylbutyl]-2-methylimidazo[1,2-a]-pyridine-3-carboxamide]
- MEC (minimal effective concentration): 1.00 µM

Compound: CCOCC(CN)NC(=O)c1c(C)nc2c(OCc3c(F)cccc3F)cc(Cl)cn12 (single isomer, unassigned) [Example 57, ent-N-(1-amino-3-ethoxypropan-2-yl)-6-chloro-8-[(2,6-difluorobenzyl)oxy]-2-methylimidazo[1,2-a]-pyridine-3-carboxamide]
- MEC (minimal effective concentration): 0.30 µM

Compound: COCCNCCNC(=O)c1c(C)nc2c(OCc3c(F)cccc3F)cccn12 [Example 144, 8-[(2,6-difluorobenzyl)oxy]-N-{2-[(2-methoxyethyl)amino]ethyl}-2-methylimidazo[1,2-a]pyridine-3-carboxamide]
- MEC (minimal effective concentration): 3.00 µM

Compound: Cc1nc2c(OCc3c(F)cccc3F)cccn2c1C(=O)NCC(C)N1CCOCC1 (single isomer, unassigned; ent-8) [Example 180, ent-8-[(2,6-Difluorobenzyl)oxy]-2-methyl-N-[2-(morpholin-4-yl)propyl]imidazo[1,2-a]pyridine-3-carboxamide]
- MEC (minimal effective concentration): 1.00 µM

Compound: Cc1nc2c(OCc3c(F)cccc3F)cccn2c1C(=O)NC1CNc2ccccc2C1 (single isomer, unassigned; ent-8) [Example 81, ent-8-[(2,6-Difluorobenzyl)oxy]-2-methyl-N-(1,2,3,4-tetrahydroquinolin-3-yl)imidazo[1,2-a]-pyridine-3-carboxamide]
- MEC (minimal effective concentration): 1.00 µM

Compound: Cc1nc2c(OCc3c(F)cccc3F)cccn2c1C(=O)NCC(C)N1CCOCC1 (single isomer, unassigned; ent-8) [Example 181, ent-8-[(2,6-Difluorobenzyl)oxy]-2-methyl-N-[2-(morpholin-4-yl)propyl]imidazo[1,2-a]pyridine-3-carboxamide]
- MEC (minimal effective concentration): 1.00 µM

Compound: Cc1nc2c(OCc3c(F)cccc3F)cccn2c1C(=O)NCCN(C)C [Example 86, 8-[(2,6-difluorobenzyl)oxy]-N-[2-(dimethyl-amino)ethyl]-2-methylimidazo[1,2-a]pyridine-3-carboxamide]
- MEC (minimal effective concentration): 2.00 µM

Compound: Cc1nc2c(OCc3c(F)cccc3F)cccn2c1C(=O)NCC(N)C(C)C (single isomer, unassigned) [Example 228, ent-N-(2-Amino-3-methylbutyl)-8-[(2,6-difluorobenzyl)oxy]-2-methylimidazo[1,2-a]pyridine-3-carboxamide]
- MEC (minimal effective concentration): 1.00 µM

Compound: COCC(CN)NC(=O)c1c(C)nc2c(OCc3c(F)cccc3F)cccn12 (single isomer, unassigned) [Example 123, ent-N-(1-Amino-3-methoxypropan-2-yl)-8-[(2,6-difluorobenzyl)oxy]-2-methylimidazo[1,2-a]-pyridine-3-carboxamide ditrifluoroacetate]
- MEC (minimal effective concentration): 3.00 µM

Compound: Cc1nc2c(OCc3c(F)cccc3F)cccn2c1C(=O)NC(C)CN (single isomer, unassigned) [Example 19, ent-N-(1-Aminopropan-2-yl)-8-[(2,6-difluorobenzyl)oxy]-2-methylimidazo[1,2-a]pyridine-3-carboxamide]
- MEC (minimal effective concentration): 1.66 µM

Compound: Cc1nc2c(OCc3c(F)cc(F)cc3F)cccn2c1C(=O)NC(CN)c1ccc(F)c(F)c1 (stereo not drawn) [Example 101, ent-N-[2-amino-1-(3,,4-difluorophenyl)ethyl]-2-methyl-8-[(2,4,6-trifluorobenzyl)oxy]imidazo[1,2-a]pyridine-3-carboxamide]
- MEC (minimal effective concentration): 1.00 µM

Continued, values first:

- MEC (minimal effective concentration): 0.30 µM
Compound: Cc1nc2c(OCc3c(F)cccc3F)cc(Cl)cn2c1C(=O)NCC(C)(N)CC(C)C (racemic) [Example 225, rac-N-(2-Amino-2,4-dimethylpentyl)-6-chloro-8-[(2,6-difluorobenzyl)oxy]-2-methylimidazo[1,2-a]pyridine-3-carboxamide]

- MEC (minimal effective concentration): 0.10 µM
Compound: COc1ccc(CC(C)(N)CNC(=O)c2c(C)nc3c(OCc4c(F)cccc4F)cc(C)cn23)cc1 (racemic) [Example 368, rac-N-[2-amino-3-(4-methoxyphenyl)-2-methylpropyl]-8-[(2,6-difluorobenzyl)oxy]-2,6-dimethylimidazo[1,2-a]pyridine-3-carboxamide]

- MEC (minimal effective concentration): 3.00 µM
Compound: Cc1cc(OCc2c(F)cccc2F)c2nc(C)c(C(=O)NCCN3CC(N4CCCC4)C3)n2c1 [Example 162, 8-[(2,6-difluorobenzyl)oxy]-2,6-dimethyl-N-{2-[3-(pyrrolidin-1-yl)azetidin-1-yl]ethyl}imidazo[1,2-a]pyridine-3-carboxamide]

- MEC (minimal effective concentration): 0.04 µM
Compound: CC[C@](C)(N)CNC(=O)c1c(C)nc2c(OCc3c(F)cccc3F)cc(C)cn12 (single isomer, unassigned) [Example 200]

- MEC (minimal effective concentration): 0.30 µM
Compound: Cc1cc(OCc2c(F)cccc2F)c2nc(C)c(C(=O)NCC(N)COC(C)C)n2c1 (racemic) [Example 206, rac-N-(2-Amino-3-isopropoxypropyl)-8-[(2,6-difluorobenzyl)oxy]-2,6-dimethylimidazo[1,2-a]-pyridine-3-carboxamide]

- MEC (minimal effective concentration): 0.30 µM
Compound: Cc1cc(OCc2c(F)cccc2F)c2nc(C)c(C(=O)NCCC(C)(C)N)n2c1 [Example 114, N-(3-amino-3-methylbutyl)-8-[(2,6-difluorobenzyl)oxy]-2,6-dimethylimidazo[1,2-a]-pyridine-3-carboxamide]

- MEC (minimal effective concentration): 0.10 µM
Compound: CSCCC(CN)NC(=O)c1c(C)nc2c(OCc3c(F)cccc3F)cc(C)cn12 (racemic) [Example 391, rac-N-[1-amino-4-(methylsulfanyl)butan-2-yl]-8-[(2,6-difluorobenzyl)oxy]-2,6-dimethylimidazo[1,2-a]pyridine-3-carboxamide]

- MEC (minimal effective concentration): 0.65 µM
Compound: Cc1nc2c(OCc3c(F)cccc3F)cc(Cl)cn2c1C(=O)NC(C)(C)CN [Example 24, N-(1-amino-2-methylpropan-2-yl)-6-chloro-8-[(2,6-difluorobenzyl)oxy]-2-methylimidazo[1,2-a]pyridine-3-carboxamide]

- MEC (minimal effective concentration): 0.10 µM
Compound: Cc1nc2c(OCc3c(F)cccc3F)cccn2c1C(=O)NCC(C)(N)CC(C)C (single isomer, unassigned) [Example 203, ent-N-(2-Amino-2,4-dimethylpentyl)-8-[(2,6-difluorobenzyl)oxy]-2-methylimidazo[1,2-a]pyridine-3-carboxamide]

- MEC (minimal effective concentration): 0.10 µM
Compound: CCCC(C)(N)CNC(=O)c1c(CC)nc2c(OCc3c(F)cccc3F)cc(C)cn12 (stereo not drawn) [Example 338, ent-N-(2-amino-2-methylpentyl)-8-[(2,6-difluorobenzyl)oxy]-2-ethyl-6-methylimidazo[1,2-a]pyridine-3-carboxamide]

- MEC (minimal effective concentration): 1.00 µM
Compound: Cc1cc(OCc2c(F)cccc2F)c2nc(C)c(C(=O)NC(C#N)CN)n2c1 (racemic) [Example 416, rac-N-(2-amino-1-cyanoethyl)-8-[(2,6-difluorobenzyl)oxy]-2,6-dimethylimidazo[1,2-a]pyridine-3-carboxamide]

- MEC (minimal effective concentration): 0.30 µM
Compound: Cc1nc2c(OCc3c(F)cccc3F)cc(Cl)cn2c1C(=O)NCC(C)N (single isomer, unassigned) [Example 30, ent-N-(2-Aminopropyl)-6-chloro-8-[(2,6-difluorobenzyl)oxy]-2-methylimidazo[1,2-a]pyridine-3-carboxamide]

- MEC (minimal effective concentration): 0.30 µM
Compound: Cc1cc(OCc2c(F)cccc2F)c2nc(C)c(C(=O)NCC(C)(N)C(F)(F)F)n2c1 (single isomer, unassigned) [Example 240, ent-N-(2-Amino-3,3,3-trifluoro-2-methylpropyl)-8-[(2,6-difluorobenzyl)oxy]-2,6-dimethylimidazo-[1,2-a]pyridine-3-carboxamide]

From US20150274719A1, “AMINO-SUBSTITUTED IMIDAZO[1,2-A]PYRIDINECARBOXAMIDES AND THEIR USE” (BAYER PHARMA AKTIENGESELLSCHAFT, priority 2012, published 2015)
